In paper PMC6011181, “The Mechanism of Acetyl Transfer Catalyzed by Mycobacterium tuberculosis GlmU” (Biochemistry, 2018):
Read-outs that look alike come from different tables or passages of the source.

How the values were obtained:
GlmU [1] = molecular target: T1, GlmU (Mycobacterium tuberculosis, UniProt P9WMN3); experiment: acetyltransferase inhibition assay; format: biochemical
GlmU [2] = molecular target: T1, GlmU; experiment: acetyltransferase dead-end inhibition, initial velocities versus Ac-CoA; format: biochemical; conditions: read-out: Kis
GlmU [3] = molecular target: T1, GlmU; experiment: biochemical; format: binding
GlmU [4] = molecular target: T1, GlmU; experiment: acetyltransferase DTP absorbance assay (CoA-SH release); format: biochemical
GlmU [5] = molecular target: T1, GlmU; experiment: biochemical; conditions: read-out: Kis
GlmU [6] = molecular target: T1, GlmU; experiment: acetyltransferase dead-end inhibition, initial velocities versus GlcN-1P; format: biochemical; conditions: read-out: Kis
GlmU [7] = molecular target: T1, GlmU; format: biochemical
[8] = tested on: N[C@H]1[C@@H](OP(=O)(O)O)O[C@H](CO)[C@@H](O)[C@@H]1O; experiment: purified protein; conditions: co-substrate Ac-CoA saturating, pH 7.5, 30 °C, 10 mM MgCl2
[9] = tested on: O=c1ccn([C@@H]2O[C@H](COP(=O)(O)OP(=O)(O)OP(=O)(O)O)[C@@H](O)[C@H]2O)c(=O)[nH]1; experiment: purified protein; conditions: co-substrate GlcNAc-1P saturating, pH 7.5, 30 °C, 10 mM MgCl2, uridylyltransferase site
[10] = tested on: CC(=O)SCCNC(=O)CCNC(=O)[C@H](O)C(C)(C)COP(=O)(O)OP(=O)(O)OC[C@H]1O[C@@H](n2cnc3c(N)ncnc32)[C@H](O)[C@@H]1OP(=O)(O)O; experiment: purified protein; conditions: co-substrate GlcN-1P saturating, pH 7.5, 30 °C, 10 mM MgCl2
[11] = tested on: N[C@H]1[C@@H](OP(=O)(O)OP(=O)(O)OC[C@H]2O[C@@H](n3ccc(=O)[nH]c3=O)[C@H](O)[C@@H]2O)O[C@H](CO)[C@@H](O)[C@@H]1O; experiment: purified protein; conditions: co-substrate Ac-CoA saturating, pH 7.5, 30 °C, 10 mM MgCl2, acetyltransferase site
[12] = tested on: CC(=O)N[C@H]1[C@@H](OP(=O)(O)O)O[C@H](CO)[C@@H](O)[C@@H]1O; experiment: purified protein; conditions: co-substrate UTP saturating, pH 7.5, 30 °C, 10 mM MgCl2, uridylyltransferase site
His374 = His374 (UniProt position 374, GTKVPHLTYVG); experiment: kinetics; conditions: 30 °C (stated for the acetyltransferase assay; not restated for the pH-rate studies); constant-ionic-strength three-component buffer (value not stated); 10 mM MgCl2; Vmax conditions (enzyme saturated with Ac-CoA and GlcN-1P), Mg2+ present
[13] = Km concentrations of Ac-CoA and GlcN-1P, pH 7.5, 30 °C, 10 mM MgCl2, acetyltransferase site, read-out: no inhibition at ≤10 mM

T1 sequence (P9WMN3 whole entry, looked up): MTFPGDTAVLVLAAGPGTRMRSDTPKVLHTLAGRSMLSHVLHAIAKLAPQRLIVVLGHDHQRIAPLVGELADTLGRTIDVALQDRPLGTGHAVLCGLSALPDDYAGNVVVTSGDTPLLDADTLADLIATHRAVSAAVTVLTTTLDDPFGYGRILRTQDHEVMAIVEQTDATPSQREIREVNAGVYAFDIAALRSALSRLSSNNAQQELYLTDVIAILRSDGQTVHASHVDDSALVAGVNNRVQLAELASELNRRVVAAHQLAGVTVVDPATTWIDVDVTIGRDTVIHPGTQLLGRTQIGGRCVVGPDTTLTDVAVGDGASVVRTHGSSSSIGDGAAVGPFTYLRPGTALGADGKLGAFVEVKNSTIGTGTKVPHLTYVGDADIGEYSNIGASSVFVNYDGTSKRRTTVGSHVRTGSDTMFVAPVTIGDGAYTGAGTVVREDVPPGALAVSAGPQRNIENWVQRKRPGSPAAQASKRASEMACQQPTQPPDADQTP

Which IC50 (GlmU [1]; [13]) does the source give for `O=P(O)(O)OC[C@H]1OC(O)[C@H](O)[C@@H](O)[C@@H]1O` (stereo partly shown) [glucose 6-phosphate] here?
Its IC50 is greater than 10 mM.

How did the IC50 (GlmU [1]; read-out: no inhibition at ≤10 mM) turn out when `O=P(O)(O)O[C@H]1O[C@H](CO)[C@@H](O)[C@H](O)[C@@H]1O` [mannose 1-phosphate] was run?
The IC50 was greater than 10 mM.

For `CCCC(=O)SCCNC(=O)CCNC(=O)[C@H](O)C(C)(C)COP(=O)(O)OP(=O)(O)OC[C@H]1O[C@@H](n2cnc3c(N)ncnc32)[C@H](O)[C@@H]1OP(=O)(O)O` [Bu-CoA], which IC50 (GlmU [1]; read-out: IC50 (mM) ^b, ^c) is on record?
The IC50 was 1 ± 0.03 mM.

And the Ki (GlmU [2])?
Its Ki is 350 ± 30 µM.

What about the Kd (GlmU [3]; read-out: Kd (mM) ^c) of the same compound?
Its Kd is 3.8 ± 0.8 mM.

What does the source list for `CC(C)(COP(=O)(O)OP(=O)(O)OC[C@H]1O[C@@H](n2cnc3c(N)ncnc32)[C@H](O)[C@@H]1OP(=O)(O)O)[C@@H](O)C(=O)NCCC(=O)NCCS` [CoA-SH]?
IC50 (GlmU [4]): 0.3 ± 0.01 mM; Kd (GlmU [3]; read-out: Kd (mM) ^c): 0.7 ± 0.13 mM; Ki (GlmU [5]): 150 ± 15 µM

Which results are given for `O=P(O)(O)O[C@H]1O[C@H](CO)[C@@H](O)[C@H](O)[C@H]1O` [Glc-1P]?
Ki (GlmU [6]): 4100 ± 600 µM; IC50 (GlmU [1]; read-out: IC50 (mM) ^b, ^c): 5 ± 0.65 mM; Kd (GlmU [3]; read-out: Kd): 1.7 ± 0.4 mM

`CCC(=O)SCCNC(=O)CCNC(=O)[C@H](O)C(C)(C)COP(=O)(O)OP(=O)(O)OC[C@H]1O[C@@H](n2cnc3c(N)ncnc32)[C@H](O)[C@@H]1OP(=O)(O)O` [Pro-CoA] was tested. Which Kd (GlmU [3]; read-out: Kd (μM) ^b) did it give?
The Kd was 0.5 ± 0.1 mM.

How did the IC50 (GlmU [1]; [13]) turn out when `CC(=O)N[C@@H]1C(O)O[C@H](CO)[C@@H](O)[C@@H]1O` (stereo partly shown) [N-acetyl-mannosamine] was run?
Its IC50 is greater than 10 mM.

`N[C@H]1C(O)O[C@H](COP(=O)(O)O)[C@@H](O)[C@@H]1O` (stereo partly shown) [GlcN-6P] was tested. Which IC50 (GlmU [1]; Km concentrations of Ac-CoA and GlcN-1P, pH 7.5, 30 °C, 10 mM MgCl2, read-out: IC50 (mM) ^b, ^c) did it give?
The IC50 was 10 ± 0.89 mM.

How did the IC50 (GlmU [1]; [13]) turn out when `O=P(O)(O)OC[C@H]1OC(O)[C@@H](O)[C@@H](O)[C@@H]1O` (stereo partly shown) [mannose 6-phosphate] was run?
The IC50 was greater than 10 mM.

For `CC(=O)N[C@H]1C(O)O[C@H](CO)[C@H](O)[C@@H]1O` (stereo partly shown) [N-acetyl-galactosamine], which IC50 (GlmU [1]; [13]) is on record?
Its IC50 is greater than 10 mM.

`N[C@H]1[C@@H](OP(=O)(O)O)O[C@H](CO)[C@@H](O)[C@@H]1O` [GlcN-1P] was tested. Which Kd (GlmU [7]) did it give?
The Kd was “in the presence of high concentrations of the second substrate, the Kd values for the complex”.

`CC(=O)SCCNC(=O)CCNC(=O)[C@H](O)C(C)(C)COP(=O)(O)OP(=O)(O)OC[C@H]1O[C@@H](n2cnc3c(N)ncnc32)[C@H](O)[C@@H]1OP(=O)(O)O` [Ac-CoA] was tested. Which Kd (GlmU [3]; read-out: Kd (μM) ^b) did it give?
The Kd was 0.25 ± 0.025 mM.

For GlmU (Mycobacterium tuberculosis H37Rv), which Km [8] is on record?
The Km was 290 ± 31 µM.

And the Km [9]?
Its Km is 8 ± 0.8 µM.

And the kcat [9]?
Its kcat is 120 ± 3 s⁻¹.

And the kcat/Km [9]?
The kcat/Km was 1.5e+07 ± 3.8e+06 M⁻¹ s⁻¹.

And the Km [10]?
The Km was 250 ± 8 µM.

And the Km [11]?
The Km was 9700 ± 600 µM.

And the kcat [11]?
Its kcat is 2.04 ± 0.06 s⁻¹.

And the kcat/Km [11]?
The kcat/Km was 220 ± 170 M⁻¹ s⁻¹.

And the Km [12]?
The Km was 30 ± 5 µM.

How did the IC50 (GlmU [1]; read-out: IC50 (mM) ^b, ^c) turn out when `C/C=C/C(=O)SCCNC(=O)CCNC(=O)[C@H](O)C(C)(C)COP(=O)(O)OP(=O)(O)OC[C@H]1O[C@@H](n2cnc3c(N)ncnc32)[C@H](O)[C@@H]1OP(=O)(O)O` [Cro-CoA] was run?
The IC50 was 1 ± 0.15 mM.

`CC(C)(COP(=O)(O)OP(=O)(O)OC[C@H]1O[C@@H](n2cnc3c(N)ncnc32)[C@H](O)[C@@H]1OP(=O)(O)O)[C@@H](O)C(=O)NCCC(=O)NCCSC(=O)CC(=O)O` [Mlo-CoA] was tested. Which IC50 (GlmU [1]; read-out: IC50 (mM) ^b, ^c) did it give?
The IC50 was 2 ± 0.59 mM.

With `CC(C)C(=O)SCCNC(=O)CCNC(=O)[C@H](O)C(C)(C)COP(=O)(O)OP(=O)(O)OC[C@H]1O[C@@H](n2cnc3c(N)ncnc32)[C@H](O)[C@@H]1OP(=O)(O)O` [IsoBu-CoA] as the compound, how does the IC50 (GlmU [1]; read-out: IC50 (mM) ^b, ^c) read?
Its IC50 is 2 ± 0.21 mM.

“Bifunctional N-acetyltransferase/uridylyltransferase GlmU (Mycobacterium tuberculosis H37Rv)” was tested. Which pKa (His374) did it give?
Its pKa is 6.7 ± 0.1.
